Experimental data reported in patent US20150105252A1, “SUBSTITUTED PYRAZOLES AS HERBICIDES” (E I DU PONT DE NEMOURS AND COMPANY, priority 2013, published 2015).

Assays:
[1] = test system: barnyardgrass; assay: Test B flood; assay type: in vivo, Echinochloa crus-galli; conditions: 250 g ai/ha, visual rating on 0 to 100 scale (0 no effect, 100 complete control), 13 to 15 days
How it was run: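 Response scored visually, 0–100 relative to controls, 13–15 days after the compound was applied into paddy water; plants were at the 2-leaf stage in pots kept flooded to 3 cm.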

[2] = test system: pigweed; assay: Test C preemergence; assay type: in vivo, Amaranthus retroflexus
How it was run: (§1)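 Herbicidal effect is expressed as percent visual control (0–100) judged against untreated plants 13 to 15 days after treatment in the greenhouse. Preemergence pots contained seeds in a soil–sand blend; postemergence plants, 2–18 cm tall, grew in peat-based planting medium.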

[3] = test system: morningglory; assay: Test C postemergence; assay type: in vivo, Ipomoea coccinea; conditions: for Plant response rating (scale of 0 to 100 where 0 is no effect and 100 is complete control), Morningglory: Postemergence, 31 g ai/ha, visually evaluated after 13 to 15 days; for Morningglory plant response rating / Plant response rating, Morningglory: postemergence; for Morningglory plant response rating: 62 g ai/ha, scale 0 to 100
Source text: (§2) Seeds of plant species selected from blackgrass (Alopecurus myosuroides), ryegrass, Italian (Italian ryegrass, Lolium multiflorum), wheat (winter wheat, Triticum aestivum), galium (catchweed bedstraw, Galium aparine), corn (Zea mays), crabgrass, large (large crabgrass, Digitaria sanguinalis), foxtail, giant (giant foxtail, Setaria faberii), johnsongrass (Sorghum halepense), lambsquarters (Chenopodium album), morningglory (Ipomoea coccinea), nutsedge, yellow (yellow nutsedge, Cyperus esculentus), pigweed (redroot pigweed, Amaranthus retroflexus), ragweed (common ragweed, Ambrosia elation), soybean (Glycine max), barnyardgrass (Echinochloa crus-galli), oilseed rape (Brassica napus), waterhemp (common waterhemp, Amaranthus rudis), oat, wild (wild oat, Avena fatua), kochia (Kochia scoparia), Surinam grass (Brachiaria decumbens), foxtail, green (green foxtail, Setaria viridis), goosegrass (Eleusine indica), bromegrass, downy (downy bromegrass, Bromus tectorum), nightshade (eastern black nightshade, Solanum ptycanthum), cocklebur (common cocklebur, Xanthium strumarium), cupgrass, woolly (woolly cupgrass, Eriochloa villosa), bermudagrass (Cynodon dactylon), sunflower, (common oilseed sunflower, Helianthus annuus), Russian thistle (Salsola kali), and velvetleaf (Abutilon theophrasti) were planted into a blend of loam soil and sand and treated preemergence with test chemicals formulated in a non-phytotoxic solvent mixture which included a surfactant.
(§3) At the same time, plants selected from these crop and weed species and also chickweed (common chickweed, Stellaria media), canarygrass (littleseed canarygrass, Phalaris minor), and deadnettle (henbit deadnettle, Lamium amplexicaule), were planted in pots containing Redi-Earth® planting medium (Scotts Company, 14111 Scottslawn Road, Marysville, Ohio 43041) comprising spaghnum peat moss, vermiculite, wetting agent and starter nutrients and treated with postemergence applications of test chemicals formulated in the same manner. Plants ranged in height from 2 to 18 cm (1- to 4-leaf stage) for postemergence treatments. Treated plants and controls were maintained in a greenhouse for 13 to 15 days, after which time all species were compared to controls and visually evaluated. Plant response ratings, summarized in Table C, are based on a scale of 0 to 100 where 0 is no effect and 100 is complete control. A dash (-) response means no test result.

[4] = test system: nutsedge, yellow; assay: Test C postemergence; assay type: in vivo, Cyperus esculentus; conditions: for Plant response rating (scale of 0 to 100 where 0 is no effect and 100 is complete control), Nutsedge, Yellow: Postemergence, 31 g ai/ha, visually evaluated after 13 to 15 days; for Nutsedge, Yellow plant response rating / Plant response rating, Nutsedge, Yellow: postemergence; for Nutsedge, Yellow plant response rating: 62 g ai/ha, scale 0 to 100
Source text: as §2, §3

[5] = test system: velvetleaf; assay: Test C preemergence; assay type: in vivo, Abutilon theophrasti
How it was run: as §1

[6] = test system: waterhemp; assay: Test C preemergence; assay type: in vivo, Amaranthus rudis
How it was run: as §1

[7] = test system: oilseed rape; assay: Test C postemergence; assay type: in vivo, Brassica napus; conditions: for Plant response rating (scale of 0 to 100 where 0 is no effect and 100 is complete control), Oilseed Rape: Postemergence, 31 g ai/ha, visually evaluated after 13 to 15 days; for Oilseed Rape plant response rating / Plant response rating, Oilseed Rape: postemergence; for Oilseed Rape plant response rating: 62 g ai/ha, scale 0 to 100
Source text: as §2, §3

[8] = test system: crabgrass, large; assay: Test C preemergence; assay type: in vivo, Digitaria sanguinalis
Source text: as §2, §3

[9] = test system: wheat; assay: Test A postemergence; assay type: in vivo, Triticum aestivum
How it was run: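 Seeds were sown in a loam soil–sand blend and given a directed soil spray preemergence; postemergence plants at 2–10 cm, one- to two-leaf stage, were sprayed with compound in non-phytotoxic solvent with surfactant. After about 10 days in a greenhouse, injury was visually rated against untreated controls (0 = no effect, 100 = complete control).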

[10] = test system: waterhemp; assay: Test C postemergence; assay type: in vivo, Amaranthus rudis; conditions: for Plant response rating (scale of 0 to 100 where 0 is no effect and 100 is complete control), Waterhemp: Postemergence, 31 g ai/ha, visually evaluated after 13 to 15 days; for Waterhemp plant response rating / Plant response rating, Waterhemp: postemergence; for Waterhemp plant response rating: scale 0 to 100
Source text: as §2, §3

[11] = test system: foxtail, giant; assay: Test C preemergence; assay type: in vivo, Setaria faberii
How it was run: as §1

[12] = test system: lambsquarters; assay: Test C preemergence; assay type: in vivo, Chenopodium album
How it was run: as §1

[13] = test system: morningglory; assay: Test C preemergence; assay type: in vivo, Ipomoea coccinea
Source text: as §2, §3

[14] = preemergence, 31 g ai/ha, visual rating, scale 0 to 100 (0 no effect, 100 complete control), 13 to 15 days
[15] = preemergence, 62 g ai/ha, 13 to 15 days, scale 0 to 100, 0 = no effect, 100 = complete control
[16] = preemergence, 125 g ai/ha, scale 0 to 100, 0 is no effect, 100 is complete control
[17] = 250 g ai/ha, scale 0 to 100 (0 no effect, 100 complete control)
[18] = 125 g ai/ha, scale 0 to 100, 0 no effect, 100 complete control
[19] = postemergence, 125 g ai/ha, about 10 days, visual rating on 0 to 100 scale (0 no effect, 100 complete control)
[20] = Postemergence, 500 g ai/ha, 0 to 100 scale (0 no effect, 100 complete control)
[21] = Postemergence, 125 g ai/ha, 0 to 100 scale, 0 no effect, 100 complete control
[22] = Preemergence, rate head not shown (block before 16 g ai/ha), scale 0 to 100
[23] = preemergence, 62 g ai/ha, scale 0 to 100 (0 no effect, 100 complete control), 13 to 15 days
[24] = preemergence, 125 g ai/ha, 13 to 15 days, scale 0 to 100, 0 = no effect, 100 = complete control
[25] = preemergence, 250 g ai/ha, scale 0 to 100, 0 is no effect, 100 is complete control

## CCc1cc(C(=O)NCC(F)(F)F)nn1Cc1ccnc(C(F)(F)F)c1 [Compound 78, 5-ethyl-N-(2,2,2-trifluoroethyl)-1-[[(2-trifluoromethyl)-4-pyridinyl]methyl]-1H-pyrazole-3-carboxamide]
[1]
  Plant response rating, Barnyardgrass: 50
[2]; Preemergence, 250 g ai/ha
  Plant response rating (scale of 0 to 100), Pigweed: 100
[2]; [14]
  Pigweed plant response rating: 100
[2]; [15]
  Plant response rating, Pigweed: 100
[2]; [16]
  Pigweed plant response rating: 100
[3]
  Plant response rating (scale of 0 to 100 where 0 is no effect and 100 is complete control), Morningglory: 70
  Morningglory plant response rating: 80
[3]; [17]
  Plant response rating, Morningglory: 100
[3]; [18]
  Plant response rating, Morningglory: 90
[4]
  Plant response rating (scale of 0 to 100 where 0 is no effect and 100 is complete control), Nutsedge, Yellow: 5
  Nutsedge, Yellow plant response rating: 5
[4]; [17]
  Plant response rating, Nutsedge, Yellow: 15
[4]; [18]
  Plant response rating, Nutsedge, Yellow: 10
[5]; Preemergence, 250 g ai/ha
  Plant response rating (scale of 0 to 100), Velvetleaf: 100
[5]; [14]
  Velvetleaf plant response rating: 80
[5]; [15]
  Plant response rating, Velvetleaf: 100
[5]; [16]
  Velvetleaf plant response rating: 100
[6]; Preemergence, 250 g ai/ha
  Plant response rating (scale of 0 to 100), Waterhemp: 100
[6]; [14]
  Waterhemp plant response rating: 100
[6]; [15]
  Plant response rating, Waterhemp: 100
[6]; [16]
  Waterhemp plant response rating: 100
[7]
  Plant response rating (scale of 0 to 100 where 0 is no effect and 100 is complete control), Oilseed Rape: 45
  Oilseed Rape plant response rating: 45
[7]; [17]
  Plant response rating, Oilseed Rape: 55
[7]; [18]
  Plant response rating, Oilseed Rape: 50
[8]; Preemergence, 250 g ai/ha
  Plant response rating (scale of 0 to 100), Crabgrass, Large: 100
[8]; [14]
  Crabgrass, Large plant response rating: 100
[8]; [15]
  Plant response rating, Crabgrass, Large: 100
[8]; [16]
  Crabgrass, Large plant response rating: 100
[9]; Postemergence, 500 g ai/ha, visual rating after approx. 10 days, 0 to 100 scale (0 no effect, 100 complete control)
  Wheat plant response rating: 80
[9]; [19]
  Wheat plant response rating: 70
[10]
  Plant response rating (scale of 0 to 100 where 0 is no effect and 100 is complete control), Waterhemp: 50
[10]; 62 g ai/ha
  Waterhemp plant response rating: 70
[10]; [17]
  Plant response rating, Waterhemp: 95
[10]; [18]
  Plant response rating, Waterhemp: 80
[11]; Preemergence, 250 g ai/ha
  Plant response rating (scale of 0 to 100), Foxtail, Giant: 100
[11]; [14]
  Foxtail, Giant plant response rating: 90
[11]; [15]
  Plant response rating, Foxtail, Giant: 98
[11]; [16]
  Foxtail, Giant plant response rating: 98

## CCCc1cc(C(=O)NCC(F)(F)F)nn1Cc1cc(C(F)(F)F)nn1C [Compound 138]
[1]
  Plant response rating, Barnyardgrass: 50
[3]
  Plant response rating (scale of 0 to 100 where 0 is no effect and 100 is complete control), Morningglory: 60
  Morningglory plant response rating: 85
[3]; [17]
  Plant response rating, Morningglory: 95
[3]; [18]
  Plant response rating, Morningglory: 85
[4]
  Plant response rating (scale of 0 to 100 where 0 is no effect and 100 is complete control), Nutsedge, Yellow: 0
  Nutsedge, Yellow plant response rating: 0
[4]; [17]
  Plant response rating, Nutsedge, Yellow: 5
[4]; [18]
  Plant response rating, Nutsedge, Yellow: 5
[7]
  Plant response rating (scale of 0 to 100 where 0 is no effect and 100 is complete control), Oilseed Rape: 55
  Oilseed Rape plant response rating: 60
[7]; [17]
  Plant response rating, Oilseed Rape: 60
[7]; [18]
  Plant response rating, Oilseed Rape: 80
[9]; [20]
  Wheat plant response rating: 90
[9]; [19]
  Wheat plant response rating: 80
[10]
  Plant response rating (scale of 0 to 100 where 0 is no effect and 100 is complete control), Waterhemp: 75
  Waterhemp plant response rating: 100
[10]; 62 g ai/ha
  Waterhemp plant response rating: 70
[10]; [17]
  Plant response rating, Waterhemp: 95

## CCc1cc(C(=O)NCC(F)(F)F)nn1Cc1cc(OC(F)F)nn1C [Compound 206]
[1]
  Plant response rating, Barnyardgrass: 0
[3]
  Plant response rating (scale of 0 to 100 where 0 is no effect and 100 is complete control), Morningglory: 40
  Morningglory plant response rating: 40
[3]; [17]
  Plant response rating, Morningglory: 65
[3]; [18]
  Plant response rating, Morningglory: 60
[4]
  Plant response rating (scale of 0 to 100 where 0 is no effect and 100 is complete control), Nutsedge, Yellow: 0
  Nutsedge, Yellow plant response rating: 0
[4]; [17]
  Plant response rating, Nutsedge, Yellow: 0
[4]; [18]
  Plant response rating, Nutsedge, Yellow: 0
[7]
  Oilseed Rape plant response rating: 5
[7]; [17]
  Plant response rating, Oilseed Rape: 50
[7]; [18]
  Plant response rating, Oilseed Rape: 5
[9]; [21]
  Wheat plant response rating: 10
[9]; [20]
  Wheat plant response rating: 20
[10]; [17]
  Plant response rating, Waterhemp: 45
[10]
  Waterhemp plant response rating: 35

## CCc1cc(C(=O)NC2CC2)nn1Cc1cc(C(F)(F)C(F)(F)F)nn1C [Compound 226]
[1]
  Plant response rating, Barnyardgrass: 50
[2]; [22]
  Plant response rating, Pigweed: 100
[2]; [23]
  Pigweed plant response rating: 100
[2]; [24]
  Plant response rating, Pigweed: 100
[2]; [25]
  Pigweed plant response rating: 100
[5]; [22]
  Plant response rating, Velvetleaf: 25
[5]; [23]
  Velvetleaf plant response rating: 80
[5]; [24]
  Plant response rating, Velvetleaf: 100
[5]; [25]
  Velvetleaf plant response rating: 100
[6]; [22]
  Plant response rating, Waterhemp: 100
[6]; [23]
  Waterhemp plant response rating: 100
[6]; [24]
  Plant response rating, Waterhemp: 100
[6]; [25]
  Waterhemp plant response rating: 100
[12]; [22]
  Plant response rating, Lambsquarters: 100
[12]; [23]
  Lambsquarters plant response rating: 100
[12]; [24]
  Plant response rating, Lambsquarters: 100
[12]; [25]
  Lambsquarters plant response rating: 100
[8]; [22]
  Plant response rating, Crabgrass, Large: 80
[8]; [23]
  Crabgrass, Large plant response rating: 100
[8]; [24]
  Plant response rating, Crabgrass, Large: 100
[8]; [25]
  Crabgrass, Large plant response rating: 100
[13]; [22]
  Plant response rating, Morningglory: 85
[13]; [23]
  Morningglory plant response rating: 85
[13]; [24]
  Plant response rating, Morningglory: 100
[13]; [25]
  Morningglory plant response rating: 100
[9]; [21]
  Wheat plant response rating: 60
[9]; [20]
  Wheat plant response rating: 90
[11]; [22]
  Plant response rating, Foxtail, Giant: 80
[11]; [23]
  Foxtail, Giant plant response rating: 90
[11]; [24]
  Plant response rating, Foxtail, Giant: 100
[11]; [25]
  Foxtail, Giant plant response rating: 100
